Here are results for twelve compounds from patent US9751837B2, “Kinase inhibitors” (RESPIVERT LIMITED, priority 2014, dated 2017).

One data set deals with GSK 3α (Homo sapiens (Human), UniProt P49840). The experiment in a line: GSK 3α enzyme inhibition (Method 2), Z-LYTE FRET. Particulars: read-out: IC50 Values for Enzyme Inhibition GSK3α. It is filed as biochemical. Summed up: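 Z-LYTE format: the protease cleaves only non-phosphorylated peptide, and the donor/acceptor (coumarin/fluorescein) ratio reports phosphorylation after a 1 hr kinase reaction with peptide (8 μM stock) and ATP (40 μM stock).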
Chain of GSK 3α (P49840 whole entry): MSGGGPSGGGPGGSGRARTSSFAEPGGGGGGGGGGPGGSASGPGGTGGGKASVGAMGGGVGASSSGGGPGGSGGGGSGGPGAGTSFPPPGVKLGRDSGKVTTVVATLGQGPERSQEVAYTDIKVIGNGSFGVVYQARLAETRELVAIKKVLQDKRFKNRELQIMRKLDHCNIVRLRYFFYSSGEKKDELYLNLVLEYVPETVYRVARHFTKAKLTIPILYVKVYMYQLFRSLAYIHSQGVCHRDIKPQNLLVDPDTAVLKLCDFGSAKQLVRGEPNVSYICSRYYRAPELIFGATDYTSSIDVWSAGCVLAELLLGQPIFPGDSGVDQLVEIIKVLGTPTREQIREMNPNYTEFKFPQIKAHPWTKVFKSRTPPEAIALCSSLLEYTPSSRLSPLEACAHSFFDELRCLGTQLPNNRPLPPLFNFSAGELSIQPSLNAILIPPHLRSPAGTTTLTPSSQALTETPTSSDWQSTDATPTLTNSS

The target of another data set is hERG (Homo sapiens (Human), UniProt Q12809). The experiment in a line: hERG inhibition, IonWorks patch clamp electrophysiology. It is filed as cell-based. The note with it: human, hERG, read-out: % Inhibition at Top Concentration. The method, then: (§1) Compounds of the invention were tested for inhibition of the human ether a go-go (hERG) channel using IonWorks™ patch clamp electrophysiology at Essen Bioscience (Welwyn Garden City, England).
Chain of hERG (Q12809 whole entry): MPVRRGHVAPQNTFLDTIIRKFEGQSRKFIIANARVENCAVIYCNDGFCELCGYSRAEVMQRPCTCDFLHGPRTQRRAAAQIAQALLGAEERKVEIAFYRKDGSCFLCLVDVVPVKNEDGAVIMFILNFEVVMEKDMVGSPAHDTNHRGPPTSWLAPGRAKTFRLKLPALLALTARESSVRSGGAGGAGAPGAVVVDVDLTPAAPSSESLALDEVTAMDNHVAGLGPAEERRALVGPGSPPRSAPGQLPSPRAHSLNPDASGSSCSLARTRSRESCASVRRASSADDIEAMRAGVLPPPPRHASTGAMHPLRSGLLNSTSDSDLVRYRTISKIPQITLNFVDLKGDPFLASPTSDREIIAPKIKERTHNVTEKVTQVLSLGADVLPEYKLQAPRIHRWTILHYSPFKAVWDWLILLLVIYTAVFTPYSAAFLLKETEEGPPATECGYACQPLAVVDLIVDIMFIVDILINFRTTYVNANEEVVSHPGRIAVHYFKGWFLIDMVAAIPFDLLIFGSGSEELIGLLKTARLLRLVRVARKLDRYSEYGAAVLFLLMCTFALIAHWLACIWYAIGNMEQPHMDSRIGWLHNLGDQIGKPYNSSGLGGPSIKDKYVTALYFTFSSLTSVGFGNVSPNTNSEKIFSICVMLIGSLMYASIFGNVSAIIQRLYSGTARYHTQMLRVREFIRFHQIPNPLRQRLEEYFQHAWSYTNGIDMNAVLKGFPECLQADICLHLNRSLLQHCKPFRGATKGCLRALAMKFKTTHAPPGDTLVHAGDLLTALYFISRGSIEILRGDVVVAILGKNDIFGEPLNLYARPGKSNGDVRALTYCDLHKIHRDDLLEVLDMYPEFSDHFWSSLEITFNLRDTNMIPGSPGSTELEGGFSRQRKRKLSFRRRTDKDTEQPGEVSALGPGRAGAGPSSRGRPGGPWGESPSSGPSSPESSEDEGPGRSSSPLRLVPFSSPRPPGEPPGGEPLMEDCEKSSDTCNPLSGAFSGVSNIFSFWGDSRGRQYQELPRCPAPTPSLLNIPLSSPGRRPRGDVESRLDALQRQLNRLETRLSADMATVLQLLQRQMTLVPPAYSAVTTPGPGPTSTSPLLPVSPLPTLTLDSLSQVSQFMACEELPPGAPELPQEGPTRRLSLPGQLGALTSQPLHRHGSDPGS

Data set [1] deals with human ether a go-go (hERG) channel (Homo sapiens (Human), UniProt Q12809). The data set is described as above. The note with it: IonWorks patch clamp. It is filed as cell-based. The method, then:
as §1

Another data set concerns Jurkat cells. The experiment in a line: Cell cytotoxicity assay (r). It is filed as cell-based, human. The note with it: 24 hours. Summed up:
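Viability read by flow cytometry as the fraction of propidium iodide-negative cells (7.5 μg/mL PI, 15 min), relative to 1.0% DMSO control. Beforehand, 1×10^5 Jurkat cells in RPMI/10% FBS were treated 24 h at 37° C., 5% CO2 with test compound at final 20, 5 or 1 μg/mL.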

Data set [2] is described as follows: Stability of pharmaceutical formulations (HPLC). It is filed as physicochemical. Particulars: 1 mg/mL solution; for Purity (%) at week n = 4: 4 weeks. Here is the method: The samples were sonicated to achieve clear solutions having the following properties: Osmolality (mOsm/kg): 310 (Na), 314 (HCl); pH: 7.00 (Na), 7.05 (HCl). 0.5 mL of the stock solutions were diluted to 1 mL with 20% DMSO in water & injected for purity analysis by HPLC. The remaining stock solutions were then split into aliquots of 0.5 mL in HPLC vials, and stored at various conditions in duplicate. Samples were stored at 5 and 25° C., before being analysed by HPLC at 1, 2 and 4 weeks. Separate samples were stored at 40° C. and analysed at 4 weeks.

The nature of data set [3]: Solubility in fasted-state simulated colonic fluid (FaSSCoF) at pH 6.5. It is filed as physicochemical. The note with it: 25 °C, pH 6.5, fassgf or other biorelevant, thermodynamic from solid. The method, boiled down:
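Compounds were suspended at up to 2-10 mg/mL in pH 6.5 Tris/maleate FaSSCoF containing a five-bile-acid mixture, phosphatidylcholine, palmitic acid and BSA. After 24 h equilibration at 25° C the suspension was filtered and the filtrate quantified by HPLC peak area against a standard.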

The target of the next data set is B-Raf (Homo sapiens (Human), UniProt P15056). Put plainly: KINOMEscan binding of B-Raf to its standard ligand. The text has this: (§2) These assays may be conducted by DiscoverX (formerly Ambit; San Diego, Calif.).
Chain of B-Raf (P15056 whole entry): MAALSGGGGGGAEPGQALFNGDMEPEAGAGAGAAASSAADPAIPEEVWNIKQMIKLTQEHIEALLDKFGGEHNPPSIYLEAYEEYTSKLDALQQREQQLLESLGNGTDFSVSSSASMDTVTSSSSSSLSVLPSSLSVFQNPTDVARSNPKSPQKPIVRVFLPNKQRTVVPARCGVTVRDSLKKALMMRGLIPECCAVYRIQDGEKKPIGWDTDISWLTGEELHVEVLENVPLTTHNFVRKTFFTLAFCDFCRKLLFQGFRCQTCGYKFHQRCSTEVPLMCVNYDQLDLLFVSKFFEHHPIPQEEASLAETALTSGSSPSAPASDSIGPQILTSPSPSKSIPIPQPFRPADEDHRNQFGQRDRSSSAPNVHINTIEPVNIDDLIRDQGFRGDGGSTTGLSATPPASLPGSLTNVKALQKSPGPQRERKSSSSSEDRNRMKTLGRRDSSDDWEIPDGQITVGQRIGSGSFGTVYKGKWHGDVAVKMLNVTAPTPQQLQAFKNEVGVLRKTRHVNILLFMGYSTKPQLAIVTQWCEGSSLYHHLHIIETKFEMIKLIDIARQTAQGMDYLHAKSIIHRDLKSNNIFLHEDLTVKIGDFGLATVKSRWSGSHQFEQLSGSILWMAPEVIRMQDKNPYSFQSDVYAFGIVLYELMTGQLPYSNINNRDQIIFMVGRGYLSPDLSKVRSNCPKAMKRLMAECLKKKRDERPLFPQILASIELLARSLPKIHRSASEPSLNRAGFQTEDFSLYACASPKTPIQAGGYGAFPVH
Another data set concerns the target B-Raf (V600E) (Homo sapiens (Human), UniProt P15056, V600E). Put plainly: KINOMEscan binding of B-Raf (V600E) to its standard ligand.
Description: as §2

In another data set the test system is non-mutant kinases. The experiment in a line: KinomeScan Selectivity Scores. It is filed as binding. Particulars: for KinomeScan Selectivity Score S(1): (non-mutant kinases with % Ctrl <1)/(non-mutant kinases tested).
Description: as §2

The mark [4] stands for this setting: pH 6.5 FaSSCoF Solubility (mg/mL) Run 1.
The mark [5] stands for this setting: pH 6.5 FaSSCoF Solubility (mg/mL) Run 2.

≈ marks a conversion by molar mass, not a printed value. Structures can show the parent of a compound that is named as a salt. Where two headings read alike, the source gives them in different places.

Chain of human ether a go-go (hERG) channel (Q12809 whole entry): as the sequence (Q12809 whole entry) above
Chain of B-Raf (V600E) (P15056 whole entry V600E): as the sequence (P15056 whole entry) above, with V600E counted along it

Take `COc1cc(Nc2cc(Oc3ccc(NC(=O)Nc4cc(C(C)(C)C)cc(NS(C)(=O)=O)c4OC)c4ccccc34)ccn2)ccc1C(=O)NC1CCN(C)CC1` [17(j), 4-[[4-[[4-[[5-tert-butyl-3-(methanesulfonamido)-2-methoxy-phenyl]carbamoylamino]-1-naphthyl]oxy]-2-pyridyl]amino]-2-methoxy-N-(1-methyl-4-piperidyl)benzamide]: the IC50 on GSK 3α is 2 µM; in data set [1] it was greater than 3.3 µM. In addition, the inhibition at 3 µM at hERG (3 μM) amounted to 7%.
As for `COc1cc(Nc2cc(Oc3ccc(NC(=O)Nc4cc(C(C)(C)C)cc(NS(C)(=O)=O)c4OC)c4ccccc34)ccn2)ccc1C(=O)NCCN1CCCCC1` [17(p), 4-[[4-[[4-[[5-tert-butyl-3-(methanesulfonamido)-2-methoxy-phenyl]carbamoylamino]-1-naphthyl]oxy]-2-pyridyl]amino]-2-methoxy-N-[2-(1-piperidyl)ethyl]benzamide], the IC50 on GSK 3α worked out at 4.68 µM. Further, the “% Viability at 20 μg/mL” value with Jurkat cells is on record as 1.5%.
Taken in the same sequence, the figures for `COc1cc(Nc2cc(Oc3ccc(NC(=O)Nc4cc(C(C)(C)C)cc(NS(C)(=O)=O)c4OC)c4ccccc34)ccn2)ccc1C(=O)NCCN1CCN(CCO)CC1` [17(z), 4-[[4-[[4-[[5-tert-butyl-3-(methanesulfonamido)-2-methoxy-phenyl]carbamoylamino]-1-naphthyl]oxy]-2-pyridyl]amino]-N-[2-[4-(2-hydroxyethyl)piperazin-1-yl]ethyl]-2-methoxy-benzamide] were 2.88 µM and 2.0%.
Consider `COc1cc(Nc2cc(Oc3ccc(NC(=O)Nc4cc(C(C)(C)C)cc(NS(C)(=O)=O)c4OC)c4ccccc34)ccn2)ccc1C(=O)O.Cl` [Example 1, hydrochloride salt], for which the “Purity (%) at week n = 2” value in data set [2] (stored at 5° C., 2 weeks) was found to be 98.0%. Further, the “Purity (%) at week n = 4” value in [2] (stored at 5° C.) worked out at 98.0%. For the same compound, the “Purity (%) at week n = 1” value in data set [2] (stored at 25° C., 1 week) was determined as 98.0%.
As to `COc1cc(Nc2cc(Oc3ccc(NC(=O)Nc4cc(C(C)(C)C)cc(NS(C)(=O)=O)c4OC)c4ccccc34)ccn2)ccc1C(=O)O` [Example 1, sodium salt], the “Purity (%) at week n = 4” value in data set [2] (stored at 40° C.) came out at 76.0%.
On to `COc1cc(Nc2cc(Oc3ccc(NC(=O)Nc4cc(C(C)(C)C)cc(NS(C)(=O)=O)c4OC)c4ccccc34)ccn2)ccc1C(=O)NCCC1CCN(C)CC1` [Example 14, 4-[[4-[[4-[[5-tert-Butyl-3-(methanesulfonamido)-2-methoxy-phenyl]carbamoylamino]-1-naphthyl]oxy]-2-pyridyl]amino]-2-methoxy-N-[2-(1-methyl-4-piperidyl)ethyl]benzamide], for which the IC50 at GSK 3α is 2.21 µM. Also, the “% Viability at 20 μg/mL” value in the data set with Jurkat cells is 0.7%. The figures for the solubility thermodynamic at 24 h in [3] (setting [4]) and in [3] (setting [5]) were 0.016 mg/mL (≈ 19.4 µM) and 0.013 mg/mL (≈ 15.8 µM), respectively.
With `C#Cc1cc(Nc2cc(Oc3ccc(NC(=O)Nc4cc(C(C)(C)C)cc(NS(C)(=O)=O)c4OC)c4ccccc34)ccn2)ccc1C(=O)NCCN1CCOCC1` [Example 15, 4-[[4-[[4-[[5-tert-Butyl-3-(methanesulfonamido)-2-methoxy-phenyl]carbamoylamino]-1-naphthyl]oxy]-2-pyridyl]amino]-2-ethynyl-N-(2-morpholinoethyl)benzamide], at GSK 3α, the IC50 amounted to 2.79 µM. Moreover, in the data set with Jurkat cells (5 μg/mL), the “% Viability at 5 μg/mL” value was found to be 75.0%. Moreover, the solubility thermodynamic at 24 h in data set [3] (setting [4]) and in data set [3] (setting [5]) was 0.01 mg/mL (≈ 12.4 µM) in each case.
Consider `COc1cc(Nc2cc(Oc3ccc(NC(=O)Nc4cc(C(C)(C)C)cc(NS(C)(=O)=O)c4OC)c4ccccc34)ccn2)cc(OC)c1C(=O)NCCN1CCN(C)CC1` [Example 22, 4-((4-((4-(3-(5-(tert-Butyl)-2-methoxy-3-(methylsulfonamido)phenyl)ureido)naphthalen-1-yl)oxy)pyridin-2-yl)amino)-2,6-dimethoxy-N-(2-(4-methylpiperazin-1-yl)ethyl)benzamide], for which the solubility thermodynamic at 24 h in data set [3] (setting [4]) is 0.017 mg/mL (≈ 19.9 µM); in data set [3] (setting [5]), 0.025 mg/mL (≈ 29.2 µM); in [3] (pH 6.5 FaSSCoF Solubility (mg/mL) Run 3), 0.013 mg/mL (≈ 15.2 µM); in data set [3] (pH 6.5 FaSSCoF Solubility (mg/mL) Run 4) it was 0.009 mg/mL (≈ 10.5 µM). The inhibition at 3.7 µM on hERG (3.7 μM) came out at 13%. The IC50 in data set [1] was greater than 3.7 µM.
As for `COc1cc(Nc2cc(Oc3ccc(NC(=O)Nc4cc(C(C)(C)C)cc(NS(C)(=O)=O)c4OC)c4ccccc34)ccn2)cc(OC)c1C(=O)NCCOCCOCCO` [Example 36, 4-((4-((4-(3-(5-(tert-butyl)-2-methoxy-3-(methylsulfonamido)phenyl)ureido)naphthalen-1-yl)oxy)pyridin-2-yl)amino)-N-(2-(2-(2-hydroxyethoxy)ethoxy)ethyl)-2,6-dimethoxybenzamide], the “effect on the binding of B-Raf to its standard ligand” value at B-Raf is “did not have any significant effect”. For the same compound, at B-Raf (V600E), the “effect on the binding of B-Raf (V600E) to its standard ligand” value was “did not have any significant effect”. The figures for the “KinomeScan Selectivity Score S(1)” value in the data set on non-mutant kinases (50 nM) and in the data set with non-mutant kinases (500 nM) were 0.002 and 0.079, respectively. Also, in the data set on non-mutant kinases (50 nM, (non-mutant kinases with % Ctrl <10)/(non-mutant kinases tested)), the “KinomeScan Selectivity Score S(10)” value is reported as 0.050. Besides, the solubility thermodynamic at 24 h in data set [3] (setting [4]) and in [3] (setting [5]) was 0.006 mg/mL (≈ 6.97 µM) throughout. The inhibition at 11 µM on hERG was 24%. Also, the IC50 in [1] was greater than 11 µM.
Regarding `COc1cc(Nc2cc(Oc3ccc(NC(=O)Nc4cc(C(C)(C)C)cc(NC(=O)CO)c4OC)c4ccccc34)ccn2)ccc1C(=O)NCCN1CC[S+]([O-])CC1` [Example 41, 4-((4-((4-(3-(5-(tert-Butyl)-3-(2-hydroxyacetamido)-2-methoxyphenyl)ureido)naphthalen-1-yl)oxy)pyridin-2-yl)amino)-2-methoxy-N-(2-(1-oxidothiomorpholino)ethyl)benzamide], the solubility thermodynamic at 24 h in [3] (setting [4]) is 0.007 mg/mL (≈ 8.5 µM); in [3] (setting [5]) it was 0.003 mg/mL (≈ 3.64 µM). In addition, the inhibition at 11 µM at hERG was found to be 7%. Further, the IC50 in data set [1] was greater than 11 µM.
As to `CCOP(C)(=O)c1ccc(Nc2cc(Oc3ccc(NC(=O)Nc4cc(C(C)(C)C)cc(NS(C)(=O)=O)c4OC)c4ccccc34)ccn2)cc1OC` (centres unmarked) [Example 43, ethyl (4-((4-((4-(3-(5-(tert-butyl)-2-methoxy-3-(methylsulfonamido)phenyl)-ureido)naphthalen-1-yl)oxy)pyridin-2-yl)amino)-2-methoxyphenyl)(methyl)phosphinate], the solubility thermodynamic at 24 h in [3] (FaSSCoF pH 6.5, 25° C., 24 h, Run 1, read-out: pH 6.5 FaSSCoF Solubility (mg/mL) Run 1) is 0.003 mg/mL (≈ 3.94 µM); in [3] (FaSSCoF pH 6.5, 25° C., 24 h, Run 2, read-out: pH 6.5 FaSSCoF Solubility (mg/mL) Run 2), 0.003 mg/mL (≈ 3.94 µM). Also, the inhibition at 11 µM at hERG was found to be 13%. In addition, the IC50 in [1] was greater than 11 µM.
As for `COc1cc(Nc2cc(Oc3ccc(NC(=O)Nc4cc(C(C)(C)C)cc(N(CCO)S(C)(=O)=O)c4OC)c4ccccc34)ccn2)ccc1C(=O)NCCN1CC[S+]([O-])CC1` [Example 48, 4-((4-((4-(3-(5-(tert-Butyl)-3-(N-(2-hydroxyethyl)methylsulfonamido)-2-methoxyphenyl)-ureido)naphthalen-1-yl)oxy)pyridin-2-yl)amino)-2-methoxy-N-(2-(1-oxidothiomorpholino)-ethyl)benzamide], in the data set with Jurkat cells (1 μg/mL), the “% Viability at 1 μg/mL” value amounted to 89.0%. For the same compound, the solubility thermodynamic at 24 h was 0.011 mg/mL (≈ 12.4 µM) in data set [3] (setting [4]) and 0.01 mg/mL (≈ 11.3 µM) in data set [3] (setting [5]). The inhibition at 11 µM on hERG was -6%. This compound also came in with an IC50 in data set [1] greater than 11 µM.
